Measured values from patent US20070054841A1, “Method of treatment of systemic injury secondary to burns” (The University of Queensland, priority 2003, published 2007).
Entries after “also recorded” stand apart in the source; their conditions may differ.

How the values were obtained:
[1] = system: rats with full thickness skin burn; experiment: Rat thermal skin burn (30% of skin area): Evans Blue leakage and macroscopic appearance of lung; assay type: in vivo, Female Wistar rats
Procedure: Female Wistar rats of body weight 250-300 grams were used in this study. The rats were divided into three groups: PMX53 treatment involved a subcutaneous injection of PMX53 in distilled water at a dose of 10 mg/kg 30 minutes before the burn. With the rats under deep anaesthesia, a closely-clipped area of skin on the back equivalent to 30% of total skin area was exposed to water at a temperature of 75° C. for 30 seconds. […] To prevent rapid death from the burn, rats were immediately treated with an intraperitoneal infusion of 8-10 ml normal saline. At the same time Evans Blue (EB) at a concentration of 20 mg/kg was injected via the femoral vein. The rats were then kept on a heating pad to maintain normal body temperature, and monitored for 4 hours. Anaesthetic was topped up as required. At the end of the experiment, 1-2 ml of blood was taken and the serum/plasma stored at −20° C., for subsequent assay of serum TNF-α levels. The leakage of EB/albumin from the blood vessels into the subcutaneous tissue was estimated by examining photographs of skin samples.

[2] = system: rats with full thickness skin burn; experiment: Rat thermal skin burn (30%): bronchoalveolar lavage cell number and lung myeloperoxidase; assay type: in vivo, Female Wistar rats; settings: 10 mg/kg SC pretreatment, 4 hours after burn injury, versus untreated burned animals
Procedure: A separate series of experiments was performed in the same way to determine myeloperoxidase (MPO) levels in the lung. In this experiment the groups were as follows: Immediately after the 4 hr monitoring period following the burn the lungs were flushed with 10 ml of saline via the pulmonary artery. Bronchoalveolar lavage (BAL) fluid was collected by an irrigation of 1 ml of saline at 37° C. into the lung once through the trachea and the total number of cells present in the lavage fluid was determined. Approximately 50% of the left lung was weighed, then homogenized in 1 ml solution of 0.05% sodium azide in 0.1M PBS (pH 6.4), and then sonicated and centrifuged. The MPO levels in the supernatants of lungs were determined using a tissue MPO assay, and the results were calculated as absorbance/tissue weight (g). Samples of affected skin, lung, liver and kidney were collected for histopathology.

[3] = system: rats with second degree burns; assay type: in vivo, Female Wistar rats; settings: topical 400 μg/spot immediately after burn; 6 hours after burn
Procedure: The inhibitory effect of topically applied PMX53 on neutrophil infiltration following a burn was examined after a 6 hour period. In order to verify any effect of PMX53 on the immune system, immunoglobulin […] (IgG) levels were examined. IgM levels can be examined using similar methods. Female Wistar rats of body weight about 250 grams were used in this study. A total of nine rats were used in the experiments, divided into 3 groups of 3 animals each: Both sides of the anaesthetized rat body was shaved. […] Skin samples were collected for histopathology. The change in circulating IgG levels following the administration of PMX53 are illustrated in FIG. 7. IgG levels in plasma were measured using an ELISA assay. IgM levels may also may be determined using conventional ELISA techniques. There was no suppression of IgG over the 6 hr period after burns to 15% of the rat skin surface area (n=3). […] The 6 hr period may be too short for the systemic reaction to the burns to be detectable.

[4] = Interaction with silver coated Acticoat dressing: silver ion leaching and surface by scanning electron microscopy; assay type: physicochemical
Procedure: (§1) Uniformly sized segments of the Acticoat dressing (10 mm diameter) were incubated in 7 ml PMX53 solution (1.0 mM in sterile water) or sterile water alone at 37° C. for periods of up to 7 days. The segments were then removed and examined using scanning electron microscopy to determine if the silver coating was affected.
A quantitative assessment of the effect of PMX53 on silver ion leaching was performed by determining the concentration of silver ions in each solution after the incubation described above for 1, 3, 5 and 7 days. Silver ion determination was performed using a Spectroflame model P ICPAES instrument.

[5] = PMX53 concentration remaining after incubation with Acticoat dressing (HPLC); assay type: physicochemical; settings: throughout the experiment (up to 7 days, 37° C.)
Procedure: as §1
An analysis of the concentration of PMX53 remaining in the incubation solutions was performed by high performance liquid chromatography to ascertain if the concentration of PMX53 remained constant throughout the incubation period. PMX53 solution was incubated at 37° C. without a dressing to act as a control.

[6] = system: T-cell dependent antigen responses; settings: rat, in vivo, po, 100 mg/kg/day
granulocytes = settings: cynomolgus monkey, in vivo, po, 100 mg/kg/day
[7] = in vivo

changes at the surface of Acticoat dressing segments (scanning electron microscopy) ([4]; 7 days incubation with PMX53, magnification of 2000): no apparent changes
factor of increase in leaching of silver ions from Acticoat dressing ([4]; PMX53 1 mM, after 1 day of incubation at 37° C.): 2.5
concentration of PMX53 incubated with Acticoat dressing compared to control PMX53 solution [5]: did not change
T-cell dependent antigen responses [6]: did not attenuate or increase
phagocytosis or oxidative burst functions of granulocytes (granulocytes): did not detectably impair
penetration through normal rat skin [7]: 0.16 %/cm^2
systemic level of the drug after topical administration compared with other routes ([7]; rat): lower systemic level
Compound: CC(=O)N[C@@H](Cc1ccccc1)C(=O)N[C@H]1CCCNC(=O)[C@H](CCCNC(=N)N)NC(=O)[C@H](Cc2c[nH]c3ccccc23)NC(=O)[C@@H](CC2CCCCC2)NC(=O)[C@@H]2CCCN2C1=O [PMX53, AcPhe[Orn-Pro-D-Cyclohexylalanine-Trp-Arg]]
degree of EB infiltration in the subcutaneous tissues ([1]; 10 mg/kg SC 30 minutes before burn, 4 hours after burning, drug-treated versus untreated burned rats): no appreciable difference
leakage of Evans Blue (plasma) into burnt skin, blue staining and thickening ([1]; 10 mg/kg SC 30 minutes before burn, compared to burn-only group): less blue staining and less thickening; also recorded: markedly less plasma leakage into the skin
macroscopic appearance of the lung (EB staining, consolidation) ([1]; 10 mg/kg SC pretreatment, 4 hours after burn): colour and texture similar to those of the normal lungs; also recorded: appear normal
total number of cells in bronchoalveolar lavage fluid [2]: cell numbers approaching those found in the sham-operated, unburned animals
total number of cells in bronchoalveolar lavage fluid ([2]; listed as PMX35): dramatically less
neutrophil recruitment in burned skin (histology) [3]: less neutrophil recruitment
structural damage of burned skin (histology) [3]: same structural damage as burned skin
